# Legend:
# [1] = molecular target: NAMPT (Homo sapiens (Human), UniProt P43490); test: Assay 1: Biochemical Inhibition Assay (NAMPT enzymatic reaction, NMN quantified by mass spectrometry); details: read-out: Biochemical (IC50);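 further: recombinant His-tagged human NAMPT preincubated with compound 15 min, then reacted 30 min at rt with 1 µM NAM, 100 µM PRPP, 2.5 mM ATP, NMN product read by RapidFire MS, normalized to L-Cystathionine internal standard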
# [2] = tested on: A2780 cells; test: Assay 2: In-Vitro Cell Proliferation Assay (A2780 cells, SRB readout, 72 hours); type: cell-based; details: Homo sapiens, A2780, 72 h, A2780 cells, 72 hours, SRB; read-out: Cell Proliferation (IC50);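 further: viable cells counted via sulforhodamine B staining, absorbance at 570 nm, after 72 h exposure at 37 °C, DMSO 0.1% as control, media-only background subtracted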
# NAMPT, sequence (P43490 whole entry): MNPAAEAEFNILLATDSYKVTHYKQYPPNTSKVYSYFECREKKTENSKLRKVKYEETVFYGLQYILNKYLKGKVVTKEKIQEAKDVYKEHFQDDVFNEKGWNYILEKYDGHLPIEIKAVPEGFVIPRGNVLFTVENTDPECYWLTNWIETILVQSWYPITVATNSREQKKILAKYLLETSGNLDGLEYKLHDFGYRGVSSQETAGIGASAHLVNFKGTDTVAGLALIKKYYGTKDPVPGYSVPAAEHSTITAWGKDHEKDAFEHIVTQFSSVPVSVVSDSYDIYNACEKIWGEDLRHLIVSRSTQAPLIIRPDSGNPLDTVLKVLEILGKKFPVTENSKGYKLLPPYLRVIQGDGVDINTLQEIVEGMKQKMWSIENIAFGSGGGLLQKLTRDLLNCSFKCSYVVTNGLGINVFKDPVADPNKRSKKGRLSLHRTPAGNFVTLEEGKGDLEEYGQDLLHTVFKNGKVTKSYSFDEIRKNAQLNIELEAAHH
IC50 [1],IC50 [2],SMILES
669 nM,731 nM,"O=C(NCc1ccc(S(=O)(=O)C2CCNCC2)cc1)c1cnc2[nH]ncc2c1 [Example 203, N-[[4-(4-piperidylsulfonyl)phenyl]methyl]-1H-pyrazolo[3,4-b]pyridine-5-carboxamide]"
66 nM,137 nM,"O=C(NCc1ccc(S(=O)(=O)C2CCNCC2)cc1)c1cc2ccncc2s1 [Example 204, N-[[4-(4-piperidylsulfonyl)phenyl]methyl]thieno[2,3-c] pyridine-2-carboxamide]"
59.2 nM,21.1 nM,"O=C(NCc1ccc(S(=O)(=O)C2CCN(C3CCOCC3)CC2)cc1)c1cnc2[nH]ncc2c1 [Example 206, N-[[4-[(1-tetrahydropyran-4-yl-4-piperidyl)sulfonyl]phenyl]methyl]-1H-pyrazolo[3,4-b]pyridine-5-carboxamide]"
29.3 nM,25 nM,"CC(=O)N1CCC(S(=O)(=O)c2ccc(CNC(=O)c3cc4ccncc4o3)cc2)CC1 [Example 207, N-[[4-[(1-acetyl-4-piperidyl)sulfonyl]phenyl]methyl]furo[2,3-c]pyridine-2-carboxamide]"
47.7 nM,10.8 nM,"O=C(NCc1ccc(S(=O)(=O)C2CCN(CC(F)(F)F)CC2)cc1)c1cnc2[nH]ncc2c1 [Example 208, N-[[4-[[1-(2,2,2-trifluoroethyl)-4-piperidyl]sulfonyl]phenyl]methyl]-1H-pyrazolo[3,4-b]pyridine-5-carboxamide]"
3.72 nM,8.84 nM,"O=C(NCc1ccc(S(=O)(=O)C2CCN(CC(F)(F)F)CC2)cc1)c1cnc2nccn2c1 [Example 209, N-[[4-[[1-(2,2,2-trifluoroethyl)-4-piperidyl]sulfonyl]phenyl]methyl]imidazo[1,2-a]pyrimidine-6-carboxamide]"
17.7 nM,3.47 nM,"O=C(NCc1ccc(S(=O)(=O)C2CCN(CC(F)(F)F)CC2)cc1)c1ccc2nccn2c1 [Example 210, N-[[4-[[1-(2,2,2-trifluoroethyl)-4-piperidyl)sulfonyl]phenyl]methyl]imidazo[1,2-a]pyridine-6-carboxamide]"
15.4 nM,3.23 nM,"O=C(NCc1ccc(S(=O)(=O)C2CCN(CC(F)(F)F)CC2)cc1)c1cc2cnccc2[nH]1 [Example 211, N-[[4-[[1-(2,2,2-trifluoroethyl)-4-piperidyl]sulfonyl]phenyl]methyl]-1H-pyrrolo[3,2-c]pyridine-2-carboxamide]"
13.5 nM,5.35 nM,"O=C(NCc1ccc(S(=O)(=O)C2CCN(CC(F)(F)F)CC2)cc1)c1cc2ccncc2o1 [Example 212, N-[[4-[[1-(2,2,2-trifluoroethyl)-4-piperidyl]sulfonyl]phenyl]methyl]furo[2,3-c]pyridine-2-carboxamide]"
13.6 nM,4.73 nM,"O=C(NCc1ccc(S(=O)(=O)C2CCN(C3CCOCC3)CC2)cc1)c1ccc2nccn2c1 [Example 214, N-[[4-[(1-tetrahydropyran-4-yl-4-piperidyl)sulfonyl]phenyl]methyl]imidazo[1,2-a] pyridine-6-carboxamide]"
81.5 nM,166 nM,"O=C(NCc1ccc(S(=O)(=O)N2CCC3(CNC3)C2)cc1)c1ccc2nccn2c1 [Example 215, N-[[4-(2,6-diazaspiro[3.4]octan-6-ylsulfonyl)phenyl]methyl] imidazo[1,2-a]pyridine-6-carboxamide]"
30.4 nM,13.7 nM,"CN1CCC2(C1)CN(S(=O)(=O)c1ccc(CNC(=O)c3ccc4nccn4c3)cc1)C2 [Example 216, N-[[4-[(7-methyl-2,7-diazaspiro[3.4]octan-2-yl)sulfonyl]phenyl]methyl] imidazo[1,2-a]pyridine-6-carboxamide]"
16 nM,10.1 nM,"O=C(NCc1ccc(S(=O)(=O)N2CCC3(CCNC3=O)C2)cc1)c1ccc2nccn2c1 (stereo not drawn) [Example 217, N-[[4-[(1-oxo-2,7-diazaspiro[4.4]nonan-7-yl)sulfonyl]phenyl]methyl] imidazo[1,2-a]pyridine-6-carboxamide]"
8.45 nM,2.17 nM,"O=C(NCc1ccc(S(=O)(=O)N2CCC3(CCCO3)C2)cc1)c1ccc2nccn2c1 (stereo not drawn) [Example 219, N-[[4-(1-oxa-7-azaspiro[4.4]nonan-7-ylsulfonyl)phenyl]methyl] imidazo[1,2-a]pyridine-6-carboxamide]"
25 nM,16.8 nM,"O=C(NCc1ccc(S(=O)(=O)N2CC3(CCOC3)C2)cc1)c1ccc2nccn2c1 [Example 220, N-[[4-(6-oxa-2-azaspiro[3.4]octan-2-ylsulfonyl)phenyl]methyl] imidazo[1,2-a]pyridine-6-carboxamide]"
125 nM,347 nM,"O=C(NCc1ccc(S(=O)(=O)[C@H]2CCOC2)cc1)c1cc2cnccc2[nH]1 [Example 221, N-[[4-[(3S)-tetrahydrofuran-3-yl]sulfonylphenyl]methyl]-1H-pyrrolo[3,2-c]pyridine-2-carboxamide]"

IC50 [1],IC50 [2],SMILES
9.77 nM,423 nM,"O=C(NCc1ccc(S(=O)(=O)[C@H]2CCOC2)cc1)c1cnc2nccn2c1 [Example 222, N-[[4-[(3S)-tetrahydrofuran-3-yl]sulfonylphenyl]methyl] imidazo[1,2-a]pyrimidine-6-carboxamide]"
64.2 nM,105 nM,"O=C(NCc1ccc(S(=O)(=O)[C@H]2CCOC2)cc1)c1ccc2nccn2c1 [Example 223, N-[[4-[(3S)-tetrahydrofuran-3-yl]sulfonylphenyl]methyl] imidazo[1,2-a]pyridine-6-carboxamide]"
3.98 nM,47.9 nM,"O=C(NCc1ccc(S(=O)(=O)C2CCN(C3CCOCC3)CC2)cc1)c1cnc2nccn2c1 [Example 224, N-[[4-[(1-tetrahydropyran-4-yl-4-piperidyl)sulfonyl]phenyl]methyl]imidazo[1,2-a]pyrimidine-6-carboxamide]"
118 nM,320 nM,"O=C(NCc1ccc(S(=O)(=O)[C@@H]2CCOC2)cc1)c1cc2cnccc2[nH]1 [Example 225, N-[[4-[(3R)-tetrahydrofuran-3-yl]sulfonylphenyl]methyl]-1H-pyrrolo[3,2-c]pyridine-2-carboxamide]"
8.88 nM,457 nM,"O=C(NCc1ccc(S(=O)(=O)[C@@H]2CCOC2)cc1)c1cnc2nccn2c1 [Example 226, N-[[4-[(3R)-tetrahydrofuran-3-yl)sulfonylphenyl]methyl] imidazo[1,2-a]pyrimidine-6-carboxamide]"
51.3 nM,98.4 nM,"O=C(NCc1ccc(S(=O)(=O)[C@@H]2CCOC2)cc1)c1ccc2nccn2c1 [Example 227, N-[[4-((3R)-tetrahydrofuran-3-yl]sulfonylphenyl]methyl] imidazo[1,2-a]pyridine-6-carboxamide]"
207 nM,151 nM,"CC(=O)N1CCC(S(=O)(=O)c2ccc(CNC(=O)c3cnc4[nH]ncc4c3)cc2)CC1 [Example 228, N-[[4-(1-Acetylpiperidine-4-sulfonyl)phenyl]methyl]-1H-pyrazolo[3,4-b]pyridine-5-carboxamide]"
5.12 nM,527 nM,"CC(=O)N1CCC(S(=O)(=O)c2ccc(CNC(=O)c3cnc4nccn4c3)cc2)CC1 [Example 229, N-[[4-[(1-acetyl-4-piperidyl)sulfonyl]phenyl]methyl]imidazo[1,2-a]pyrimidine-6-carboxamide]"
73.8 nM,243 nM,"O=C(NCc1ccc(S(=O)(=O)[C@H]2CCOC2)cc1)c1cc2ccncc2o1 [Example 230, N-[[4-[(3S)-tetrahydrofuran-3-yl]sulfonylphenyl]methyl]furo [2,3-c]pyridine-2-carboxamide]"
315 nM,977 nM,"O=C(NCc1ccc(S(=O)(=O)[C@H]2CCOC2)cc1)c1cnc2[nH]ncc2c1 [Example 231, N-[[4-[(3S)-tetrahydrofuran-3-yl]sulfonylphenyl]methyl]-1H-pyrazolo[3,4-b]pyridine-5-carboxamide]"
175 nM,445 nM,"O=C(NCc1ccc(S(=O)(=O)[C@@H]2CCOC2)cc1)c1cc2ccncc2o1 [Example 232, N-[[4-[(3R)-tetrahydrofuran-3-yl]sulfonylphenyl]methyl]furo [2,3-c]pyridine-2-carboxamide]"
227 nM,1590 nM,"O=C(NCc1ccc(S(=O)(=O)[C@@H]2CCOC2)cc1)c1cnc2[nH]ncc2c1 [Example 233, N-[[4-((3R)-tetrahydrofuran-3-yl]sulfonylphenyl]methyl]-1H-pyrazolo[3,4-b]pyridine-5-carboxamide]"
90.6 nM,130 nM,"O=C(NCc1ccc(S(=O)(=O)C2CCNCC2)cc1)c1ccc2nccn2c1 [Example 234, N-[[4-(4-piperidylsulfonyl)phenyl]methyl]imidazo[1,2-a]pyridine-6-carboxamide]"
16.4 nM,36.3 nM,"CC(C)(C)OC(=O)N1CCC2(CC1)CCN(S(=O)(=O)c1ccc(CNC(=O)c3ccc4nccn4c3)cc1)C2 [Example 235, tert-butyl 2-[4-[(imidazo[1,2-a]pyridine-6-carbonylamino)methyl]phenyl] sulfonyl-2,8-diazaspiro[4.5]decane-8-carboxylate]"
109 nM,38.8 nM,"CC(C)(C)OC(=O)N1CCC2(CCCN2S(=O)(=O)c2ccc(CNC(=O)c3ccc4nccn4c3)cc2)C1 (stereo not drawn) [Example 237, tert-butyl 1-[4-[(imidazo[1,2-a]pyridine-6-carbonylamino)methyl]phenyl] sulfonyl-1,7-diazaspiro[4.4]nonane-7-carboxylate]"
11.8 nM,1.83 nM,"CC(C)(C)OC(=O)N1CCCC2(C1)CN(S(=O)(=O)c1ccc(CNC(=O)c3ccc4nccn4c3)cc1)C2 [Example 238, tert-butyl 2-[4-[(imidazo[1,2-a]pyridine-6-carbonylamino)methyl]phenyl] sulfonyl-2,8-diazaspiro[3.5]nonane-8-carboxylate]"

SMILES,IC50 [1],IC50 [2]
"O=C(NCc1ccc(S(=O)(=O)N2CC3(CCOCC3)C2)cc1)c1ccc2nccn2c1 [Example 218, N-[[4-(7-oxa-2-azaspiro[3.5]nonan-2-ylsulfonyl)phenyl]methyl] imidazo[1,2-a]pyridine-6-carboxamide]",10.3 nM,3.45 nM

# Source: patent US10696692B2, “Amido-benzyl sulfone and sulfoxide derivates” (Forma TM, LLC, priority 2012, dated 2020)
